Earlier results, collected in paper PMC2749889 (Journal of neurochemistry, 2009).

Legend:
α9 homomers = details: read-out: IC50, α9 homomers; ref Verbitsky et al. 2000
α6 ^* = details: ref Klink et al. 2001; Mogg et al. 2002

**Q.** With CCN1C[C@]2(COC(=O)c3ccccc3N3C(=O)C[C@H](C)C3=O)CC[C@H](OC)[C@@]34[C@@H]5C[C@H]6[C@H](OC)[C@@H]5[C@](O)(C[C@@H]6OC)[C@@](O)([C@@H](OC)[C@H]23)[C@@H]14 [MLA, Methyllycaconitine] as the molecule, how does the IC50 (α9 homomers) read?
**A.** Its IC50 is 1.1 nM.

**Q.** And the “block of α6 ^*” value (α6 ^*)?
**A.** The value was “blocks”.
